Laboratory results from PubChem BioAssay (NCI).
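These data come from cells grown in 96-well plates and exposed to compound for 48 hours at five concentrations. TGI marks complete inhibition of growth.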

Legend:
Assay in all cases: NCI-60 cell line screen, 48 h
MOLT-4 leukemia = test system: MOLT-4 leukemia
SK-OV-3 ovarian = test system: SK-OV-3 ovarian
U251 CNS = test system: U251 CNS
HOP-62 NSCLC = test system: HOP-62 NSCLC
OVCAR-4 ovarian = test system: OVCAR-4 ovarian
MALME-3M melanoma = test system: MALME-3M melanoma
RPMI-8226 leukemia = test system: RPMI-8226 leukemia
OVCAR-5 ovarian = test system: OVCAR-5 ovarian
UACC-62 melanoma = test system: UACC-62 melanoma
OVCAR-8 ovarian = test system: OVCAR-8 ovarian
A498 renal = test system: A498 renal
MDA-N = test system: MDA-N
NCI-H522 lung = test system: NCI-H522 lung
SF-268 CNS = test system: SF-268 CNS
RXF 393 renal = test system: RXF 393 renal
T-47D breast = test system: T-47D breast
BT-549 breast = test system: BT-549 breast

Structure (SMILES) | TGI (MOLT-4 leukemia) | TGI (SK-OV-3 ovarian) | TGI (U251 CNS) | TGI (HOP-62 NSCLC) | TGI (OVCAR-4 ovarian) | TGI (MALME-3M melanoma) | TGI (RPMI-8226 leukemia) | TGI (OVCAR-5 ovarian) | TGI (UACC-62 melanoma) | TGI (OVCAR-8 ovarian) | TGI (A498 renal) | TGI (MDA-N) | TGI (NCI-H522 lung) | TGI (SF-268 CNS) | TGI (RXF 393 renal) | TGI (T-47D breast) | TGI (BT-549 breast)
COC(=O)C1=C(OC(=O)/C(=C/c2ccc(Cl)cc2Cl)c2ccc(Cl)cc2Cl)C(C(=O)OC)[C@@]2(O)[C@@H](C(=O)OC)[C@H](C)C[C@@H]1[C@@H]2C(=O)OC (some centres undefined) | > 100 µM | > 100 µM | > 100 µM | > 100 µM | > 100 µM | > 100 µM | > 100 µM | > 100 µM | > 100 µM | > 100 µM | > 100 µM | > 100 µM | > 100 µM | > 100 µM | > 100 µM | > 100 µM | > 100 µM
COC(=O)Nc1nc2ccc(Oc3ccc4nc(NC(=O)OC)[nH]c4c3)cc2[nH]1 | > 32.8 µM | > 100 µM | 10.9 µM | 45.6 µM | > 100 µM | > 100 µM | > 26.7 µM | > 100 µM | > 100 µM | > 100 µM | > 51.4 µM | > 100 µM | > 100 µM | – | > 22.8 µM | > 100 µM | > 100 µM
CCOc1cc(-c2nc3ccccn3c2/N=C/c2cc([N+](=O)[O-])cc([N+](=O)[O-])c2O)ccc1O | > 100 µM | > 100 µM | > 100 µM | > 100 µM | > 100 µM | > 100 µM | > 100 µM | > 100 µM | > 100 µM | > 100 µM | > 100 µM | > 100 µM | > 100 µM | > 100 µM | > 100 µM | > 100 µM | > 100 µM
COc1ccc(/C(CCl)=C(\Nc2ccccc2)c2ccc(OC)c(OC)c2)cc1OC | > 100 µM | > 100 µM | > 100 µM | > 100 µM | > 100 µM | > 100 µM | > 100 µM | > 100 µM | > 100 µM | > 100 µM | > 100 µM | > 100 µM | > 100 µM | > 100 µM | > 100 µM | > 100 µM | > 100 µM
CN1CCC(CNC(=O)CCCCCCCCC(=O)NCC2(c3ccccc3)CCN(C)CC2)(c2ccccc2)CC1 | > 100 µM | > 100 µM | > 100 µM | > 100 µM | > 100 µM | > 100 µM | > 100 µM | > 100 µM | > 100 µM | > 100 µM | > 100 µM | > 100 µM | > 100 µM | 57.6 µM | > 100 µM | > 100 µM | > 100 µM
COc1ccc(C2=C(Cl)c3cc(OC)c(OC)cc3C2=O)cc1OC | > 100 µM | 36.9 µM | – | 30.4 µM | 25.5 µM | 26 µM | 87.1 µM | 33.9 µM | 29.6 µM | 31.9 µM | 32 µM | 38.3 µM | 27 µM | 35.9 µM | 18 µM | 10.9 µM | 29.5 µM
CC1CC(=O)Nc2cc(Cl)ccc2N1C(=O)C1CC1 (centres undefined) | > 100 µM | > 100 µM | > 100 µM | > 100 µM | > 100 µM | > 100 µM | > 100 µM | > 100 µM | – | > 100 µM | > 100 µM | > 100 µM | > 100 µM | > 100 µM | > 100 µM | > 100 µM | > 100 µM
CC1CC(C)[C@H](O)C([C@H](O)CC2CC(=O)N(C)C(=O)C2)C1 (some centres undefined) | > 100 µM | > 100 µM | > 100 µM | > 100 µM | > 100 µM | > 100 µM | > 100 µM | > 100 µM | > 100 µM | > 100 µM | > 100 µM | > 100 µM | > 100 µM | > 100 µM | > 100 µM | > 100 µM | > 100 µM
Oc1ccc(Cl)cc1-c1[nH]c(=S)nc(-c2ccccc2)c1Cl | > 100 µM | > 100 µM | 97.9 µM | > 84.9 µM | > 100 µM | > 100 µM | > 100 µM | > 100 µM | – | > 100 µM | > 100 µM | > 100 µM | > 31.6 µM | > 100 µM | > 100 µM | > 100 µM | > 100 µM
COC(=O)c1ccccc1/C=C1/Cc2cccc(C)c2C1=O | > 100 µM | > 100 µM | > 100 µM | > 100 µM | > 100 µM | > 100 µM | > 100 µM | > 100 µM | > 100 µM | > 100 µM | > 100 µM | > 100 µM | > 100 µM | > 100 µM | > 100 µM | > 100 µM | > 100 µM
CCC(C)C(C(=O)N/N=C1/SCC(=O)N1C)C(=O)N/N=C1/SCC(=O)N1C (centres undefined) | > 100 µM | > 100 µM | > 100 µM | > 100 µM | > 100 µM | > 100 µM | > 100 µM | > 100 µM | > 100 µM | > 100 µM | > 100 µM | > 100 µM | > 100 µM | > 100 µM | > 100 µM | > 100 µM | > 100 µM
CCCCCCCC(=O)OC[n+]1ccc(-c2c(COC(=O)NC(C)C)c(COC(=O)NC(C)C)c3n2CCC3)cc1 | > 59 µM | > 100 µM | > 100 µM | > 100 µM | > 100 µM | > 90.6 µM | 66.2 µM | > 100 µM | 33.5 µM | > 100 µM | 85.1 µM | > 100 µM | > 59.6 µM | > 73.8 µM | 49.9 µM | > 100 µM | > 94.1 µM
CC(C)(C)OC(=O)NC1CC=CCC1NC(=O)OC(C)(C)C (centres undefined) | > 100 µM | > 100 µM | > 100 µM | > 100 µM | > 100 µM | > 100 µM | > 100 µM | > 100 µM | > 100 µM | > 100 µM | > 100 µM | > 100 µM | > 100 µM | > 100 µM | > 100 µM | > 100 µM | > 100 µM
O=C(c1ccco1)C1CC(c2ccc3ccccc3c2O)=NN1 (centres undefined) | > 100 µM | > 100 µM | > 100 µM | > 100 µM | > 100 µM | > 100 µM | > 100 µM | > 100 µM | > 100 µM | > 100 µM | > 100 µM | > 100 µM | > 100 µM | > 100 µM | > 100 µM | > 100 µM | > 100 µM
